Measurements as given in patent US11111240B2, “Sultam compound and application method thereof” (Chia Tai Tianqing Pharmaceutical Group Co., Ltd., priority 2016, dated 2021).
Where two headings read alike, the source gives them in different places.

Assays:
[1] = Pharmacokinetic experiments in male SD rats, single peroral administration; type: in vivo, rat; settings: for Cmax / Tmax / AUC(0-inf) / half-life: plasma; for AUC(0-inf): read-out: AUCINF—obs
Procedure: Male SD rats were from Beijing Vital River Laboratory Animal Technology Co., Ltd., and divided into groups (3 rats per group). The rats were intragastrically administered with the test sample suspension (5 mg/kg) via a single peroral administration, respectively. The animals were fasted overnight before this study. The fasting time period was from 10 hours before administration to 4 hours after administration. Blood samples were taken at 0.25, 0.5, 1, 2, 4, 6, 8 and 24 hours after administration. After the rats were anesthetized with isoflurane using an anesthesia machine for small animal, and then 0.3 mL whole blood samples were taken from the fundus venous plexus. The blood samples were placed in heparin anticoagulant tubes, and centrifuged for 5 min at 4° C. and 4000 rpm. The plasma was transferred to centrifuge tubes, and stored at −80° C. until analysis. The samples in plasma were extracted through protein precipitation. The liquid extract was analyzed by LC-MS/MS, wherein HPLC conditions were as follows: flow rate 0.4 mL/min; mobile phase A: water/formic acid (99.9/0.1, v/v); mobile phase B: acetonitrile/formic acid (99.9/0.1, v/v); injection volume: 5 μL; column temperature: RT; autosampler temperature: RT; run time: 2.5 min.

U87/IDH1 (R132H) cells = experiment: Inhibitory activity on IDH1-mutated U87 cells (2-HG determination); type: cell-based; settings: Homo sapiens, U-87 MG
Procedure: In the presence of 2-HG, phosphoglycerate dehydrogenase PHGDH can reduce NAD to NADPH, and the latter may be quantitatively determined by lipoamide dehydrogenase and the substrate thereof, resazurin.
U87 cell is a human glioblastoma cell line with an IDH1 mutation (R132H).
Cells was digested with trypsin, and inoculated into a 6-well plate at a density of 5×10^5, and cultured overnight in an incubator at 37° C. […] Culture medium of each sample was sucked out and centrifuged at 1000 rpm for 10 min. The supernatant was sucked out to detect the content of 2-HG therein. Additionally, cells were washed with PBS (phosphate buffered saline), digested with trypsin and collected. After the collected cells were washed with PBS for one time, the determination of intracellular 2-HG content was performed.
The method for determining the intracellular 2-HG was as follows: cells were re-suspended with 300 μL reaction buffer (40 mM Tris-HCl, pH 8.5; 150 mM NaCl) and disrupted by ultrasonication. They were centrifuged for 10 min at 12,000 rpm and 4° C. to remove insoluble substances. 25 μL supernatant was sucked out to determine the protein concentration by a BCA kit. […]
The measured fluorescence values were compared after being corrected with the protein concentrations of the corresponding samples.

IDH1 (R132H) = IDH1 (R132H) (Homo sapiens (Human), UniProt O75874, R132H); experiment: Enzyme assay, IDH1m inhibition (NADPH decrease, diaphorase/resazurin); type: biochemical; settings: 40 nM enzyme, 16 h pre-incubation at 23° C.
Description: (§1) Resazurin is a traditional redox dye, and after a redox reaction, it can be reduced from a blue resazurin without fluorescence to a pink fluorescent substance, resorufin, which can be measured and quantified with relative fluorescence unit (RFU) of fluorophotometer (Ex=530-570 nm, Em=590-620 nm). At present, resazurin is widely used for determining the viability of bacteria, cells, etc. and the enzyme activity detection of oxidoreductase. We detected the decrease of cofactor NADPH to determine the inhibitory activity of a compound against IDH1m and detected the generation of cofactor NADPH to determine the inhibitory activity of a compound against IDH WT. The compound was pre-incubated with IDH1m and NADPH, and then the reaction was initiated by adding α-KG and performed for certain time under a linear condition. Then, diaphorase (lipoamide dehydrogenase) and the corresponding substrate resazurin were added thereto for detection. Lipoamide dehydrogenase terminated the IDH1m reaction by decreasing the available cofactor NADPH, which oxidized NADPH to NADP, and reduced resazurin to high fluorescent resorufin. The amount of the remaining cofactor NADPH after a specific reaction time was quantified via an easily detectable fluorophore.
(§2) The specific operation was as follows: 2.5 μl of the compound diluted in a 3-fold gradient was added to a 384-well plate, followed by adding 5 μl of the reaction buffer (20 mM Tris-HCl, pH 7.5; 150 mM NaCl; 10 mM MgCl2; 0.4 mg/mL BSA (Bovine Serum Albumin) and 2 mM DTT (dithiothreitol)) containing 40 nM IDH1 (R132H/R132C) and 20 μM NADPH. Then, the above test mixture was incubated at 23° C. for 16 hours, and then 2.5 μl of the reaction buffer containing 4 mM α-KG was added to initiate the reaction. After they were incubated for 60 minutes at room temperature, 5 μl of the termination mixture (0.4 U/ml diaphorase and 20 μM resazurin) formulated with the reaction buffer was added to convert resazurin to resorufin, so as to measure the amount of the remaining NADPH. After incubating at 23° C. for 10 minutes, fluorescence values were determined through Flexstation 3 at Ex535/Em595. The enzyme activity of each compound was respectively determined at 12 concentrations, and the data were calculated using the software GraFit6.0 (Erithacus Software) to obtain the IC50 value of each compound.

IDH1 (R132C) = IDH1 (R132C) (Homo sapiens (Human), UniProt O75874, R132C); experiment: as above; type: biochemical; settings: 40 nM enzyme, 16 h pre-incubation at 23° C.
Description: as §1, §2

[2] = rat, male SD rats, oral 5 mg/kg, 0.5% MC, 0.2% Tween80

IDH1 (R132H), sequence (O75874 whole entry R132H): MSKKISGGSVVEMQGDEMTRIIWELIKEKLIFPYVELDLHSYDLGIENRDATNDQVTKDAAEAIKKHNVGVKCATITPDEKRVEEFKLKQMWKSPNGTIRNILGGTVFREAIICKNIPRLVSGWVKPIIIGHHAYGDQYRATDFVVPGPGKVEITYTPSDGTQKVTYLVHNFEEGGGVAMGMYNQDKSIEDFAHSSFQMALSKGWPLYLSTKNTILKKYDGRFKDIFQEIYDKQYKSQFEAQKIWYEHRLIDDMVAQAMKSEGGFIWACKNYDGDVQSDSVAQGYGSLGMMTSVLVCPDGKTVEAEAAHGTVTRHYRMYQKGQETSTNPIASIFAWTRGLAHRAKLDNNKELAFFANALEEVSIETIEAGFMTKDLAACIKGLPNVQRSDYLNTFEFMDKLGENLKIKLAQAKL
IDH1 (R132C), sequence (O75874 whole entry R132C): as the sequence (O75874 whole entry R132H) above, with H132C counted along it

Row | SMILES | IC50 (IDH1 (R132H)) | other results
1 | N#Cc1ccnc(N2C(=O)CC[C@H]2C(=O)N(c2cncc(F)c2)[C@H](C(=O)NC2CC(F)(F)C2)c2ccccc2Cl)c1 [AG-120, ivosidenib, reference compound] | – | Cmax [1, 2]: 0.719 µg/mL; Tmax [1, 2]: 0.67 h; AUC(0-inf) [1, 2]: 6.32 µg·h/mL; half-life ([1]; rat, male SD rats, oral 5 mg/kg, 0.5% MC, 0.2% Tween80, read-out: T1/2 (converted)): 3.28 h; IC50 (U87/IDH1 (R132H) cells): 0.046 µM
2 | O=C(NC1CCCCC1)[C@@H](c1ccccc1Cl)N(C(=O)[C@@H]1CCS(=O)(=O)N1c1ncccn1)c1cccc(F)c1 [Example 13, (S)—N—((R)-1-(2-chlorophenyl)-2-(cyclohexylamino)-2-oxoethyl)-2-(pyrimidin-2-yl)-N-(3-fluorophenyl)-isothiazolidine-3-carboxamide 1,1-dioxide] | < 1 µM | –
3 | O=C(NC1CCCCC1)[C@H](c1ccccc1Cl)N(C(=O)[C@@H]1CCS(=O)(=O)N1c1ncccn1)c1cccc(F)c1 [Example 14, (S)—N—((S)-1-(2-chlorophenyl)-2-(cyclohexylamino)-2-oxoethyl)-2-(pyrimidin-2-yl)-N-(3-fluorophenyl)-isothiazolidine-3-carboxamide 1,1-dioxide] | < 0.02 µM | –
4 | N#Cc1ccnc(N2[C@H](C(=O)N(c3cccc(F)c3)[C@@H](C(=O)NC3CCCCC3)c3ccccc3Cl)CCS2(=O)=O)c1 [Example 15, (S)—N—((R)-1-(2-chlorophenyl)-2-(cyclohexylamino)-2-oxoethyl)-2-(4-cyanopyridin-2-yl)-N-(3-fluorophenyl)-isothiazolidine-3-carboxamide 1,1-dioxide] | < 0.5 µM | –
5 | N#Cc1ccnc(N2[C@H](C(=O)N(c3cccc(F)c3)[C@H](C(=O)NC3CCCCC3)c3ccccc3Cl)CCS2(=O)=O)c1 [Example 16, (S)—N—((S)-1-(2-chlorophenyl)-2-(cyclohexylamino)-2-oxoethyl)-2-(4-cyanopyridin-2-yl)-N-(3-fluorophenyl)-isothiazolidine-3-carboxamide 1,1-dioxide] | < 0.02 µM | –
6 | O=C(NC1CCCCC1)[C@@H](c1ccccc1Cl)N(C(=O)[C@@H]1CCS(=O)(=O)N1c1cc(F)ccn1)c1cccc(F)c1 [Example 17, (S)—N—((R)-1-(2-chlorophenyl)-2-(cyclohexylamino)-2-oxoethyl)-2-(4-fluoropyridin-2-yl)-N-(3-fluorophenyl)-isothiazolidine-3-carboxamide 1,1-dioxide] | < 10 µM | –
7 | O=C(NC1CCCCC1)[C@H](c1ccccc1Cl)N(C(=O)[C@@H]1CCS(=O)(=O)N1c1cc(F)ccn1)c1cccc(F)c1 [Example 18, (S)—N—((S)-1-(2-chlorophenyl)-2-(cyclohexylamino)-2-oxoethyl)-2-(4-fluoropyridin-2-yl)-N-(3-fluorophenyl)-isothiazolidine-3-carboxamide 1,1-dioxide] | < 0.1 µM | –
8 | C#Cc1ccnc(N2[C@H](C(=O)N(c3cccc(F)c3)C(C(=O)NC3CCCCC3)c3ccccc3Cl)CCS2(=O)=O)c1 (stereo partly drawn) [Example 19, (3S)—N-(1-(2-chlorophenyl)-2-(cyclohexylamino)-2-oxoethyl)-N-(3-fluorophenyl)-2-(4-ethynylpyridin-2-yl)isothiazolidine-3-carboxamide 1,1-dioxide] | < 1 µM | –
9 | N#Cc1ccnc(NS(=O)(=O)c2cccc(N(C(=O)[C@@H]3CCS(=O)(=O)N3c3cc(C#N)ccn3)C(C(=O)NC3CCCCC3)c3ccccc3Cl)c2)c1 (stereo partly drawn) [Example 20, (3S)—N-(1-(2-chlorophenyl)-2-(cyclohexylamino)-2-oxoethyl)-2-(4-cyanopyridin-2-yl)-N-(3-(N-(4-cyanopyridin-2-yl)aminosulfonyl)phenyl)-isothiazolidine-3-carboxamide 1,1-dioxide] | < 0.02 µM | –
10 | N#Cc1cccc(CN2[C@H](C(=O)N(c3cccc(F)c3)C(C(=O)NC3CCCCC3)c3ccccc3Cl)CCS2(=O)=O)c1 (some centres unmarked) [Example 21] | < 10 µM | –
11 | N#Cc1ccnc(N2[C@H](C(=O)N(c3cccc(S(N)(=O)=O)c3)C(C(=O)NC3CCCCC3)c3ccccc3Cl)CCS2(=O)=O)c1 (stereo partly drawn) [Example 26, (3S)—N-(1-(2-chlorophenyl)-2-(cyclohexylamino)-2-oxoethyl)-2-(4-cyanopyridin-2-yl)-N-(3-aminosulfonylphenyl)-isothiazolidine-3-carboxamide 1,1-dioxide] | < 0.02 µM | –
12 | N#Cc1ccnc(N2[C@H](C(=O)N(c3cc(F)c[n+]([O-])c3)[C@H](C(=O)NC3CC(F)(F)C3)c3ccccc3Cl)CCS2(=O)=O)c1 [Example 27, 3-((S)—N—((S)-1-(2-chlorophenyl)-2-((3,3-difluorocyclobutyl)amino)-2-oxoethyl)-2-(4-cyanopyridin-2-yl)-1,1-dioxoisothiazolidine-3-carboxamido)-5-fluoropyridine-1-oxide] | 0.02 µM | –

Further lines, with some results ahead:

Row | IC50 (IDH1 (R132H)) | SMILES | other results
13 | < 0.5 µM | N#Cc1ccnc(N2[C@H](C(=O)N(c3cccc(F)c3)[C@@H](C(=O)NC3CC(F)(F)C3)c3ccccc3Cl)CCS2(=O)=O)c1 [Example 11, (S)—N—((R)-1-(2-chlorophenyl)-2-((3,3-difluorocyclobutyl)amino)-2-oxoethyl)-2-(4-cyanopyridin-2-yl)-N-(3-fluorophenyl)-isothiazolidine-3-carboxamide 1,1-dioxide] | –
14 | < 0.02 µM | N#Cc1ccnc(N2[C@H](C(=O)N(c3cccc(F)c3)[C@H](C(=O)NC3CC(F)(F)C3)c3ccccc3Cl)CCS2(=O)=O)c1 [Example 12, (S)—N—((S)-1-(2-chlorophenyl)-2-((3,3-difluorocyclobutyl)amino)-2-oxoethyl)-2-(4-cyanopyridin-2-yl)-N-(3-fluorophenyl)-isothiazolidine-3-carboxamide 1,1-dioxide] | IC50 (IDH1 (R132C)): < 0.02 µM; T1/2 ([1]; male SD rats, oral 5 mg/kg, 0.5% MC, 0.2% Tween80): 10.7 h; half-life ([1]; male, SD, 5 mg/kg, rat, oral, read-out: half-life (converted)): 10.7 h; Cmax [1, 2]: 0.556 µg/mL; Tmax [1, 2]: 4 h; AUC(0-inf) [1, 2]: 10.6 µg·h/mL; drug exposure in plasma compared with AG-120 ([1]; rat, same oral dose): far higher than that of AG-120
15 | < 1 µM | N#Cc1ccnc(N2[C@H](C(=O)N(c3cccc(F)c3)[C@@H](C(=O)NC3CCC(F)(F)CC3)c3ccccc3Cl)CCS2(=O)=O)c1 [Example 22] | –
16 | < 0.02 µM | N#Cc1ccnc(N2[C@H](C(=O)N(c3cccc(F)c3)[C@H](C(=O)NC3CCC(F)(F)CC3)c3ccccc3Cl)CCS2(=O)=O)c1 [Example 23, (S)—N—((S)-1-(2-chlorophenyl)-2-((4,4-difluorocyclohexyl)amino)-2-oxoethyl)-2-(4-cyanopyridin-2-yl)-N-(3-fluorophenyl)-isothiazolidine-3-carboxamide 1,1-dioxide] | –
17 | < 0.02 µM | N#Cc1ccnc(N2[C@H](C(=O)N(c3cccc(F)c3)[C@H](C(=O)NC3CC(F)(F)C3)c3ccccc3Cl)CNS2(=O)=O)c1 [Example 24, (S)—N—((S)-1-(2-chlorophenyl)-2-((3,3-difluorocyclobutyl)amino)-2-oxoethyl)-2-(4-cyanopyridin-2-yl)-N-(3-fluorophenyl)-1,2,5-thiadiazolidine-3-carboxamide 1,1-dioxide] | –
18 | 0.02 µM | CN1C[C@@H](C(=O)N(c2cccc(F)c2)C(C(=O)NC2CC(F)(F)C2)c2ccccc2Cl)N(c2cc(C#N)ccn2)S1(=O)=O (stereo partly drawn) [Example 25, (3S)—N-(1-(2-chlorophenyl)-2-((3,3-difluorocyclobutyl)amino)-2-oxoethyl)-2-(4-cyanopyridin-2-yl)-N-(3-fluorophenyl)-5-methyl-1,2,5-thiadiazolidine-3-carboxamide 1,1-dioxide] | –
